Laboratory results from the NIST ThermoML archive (doi:10.1016/j.jct.2016.01.017).
Numbers after ± are expanded uncertainties.

Experiment: activity coefficient (dimensionless); of the first substance listed, at infinite dilution; xn = mol fraction of the nth substance listed
Conditions: 100 kPa, Liquid, Chromatography, x1 = 0

Row | SMILES | activity coefficient (308.15 K) | activity coefficient (318.15 K) | activity coefficient (328.15 K) | activity coefficient (338.15 K) | activity coefficient (348.15 K) | activity coefficient (358.15 K) | activity coefficient (368.15 K)
1 | CC(C)O [propan-2-ol] + CCCC[n+]1ccc(C#N)cc1.O=S(=O)([N-]S(=O)(=O)C(F)(F)F)C(F)(F)F | 2.25 ± 0.19 | 2.08 ± 0.18 | 1.95 ± 0.17 | 1.83 ± 0.16 | 1.73 ± 0.15 | 1.63 ± 0.14 | –
2 | CCCc1ccccc1 [propylbenzene] + CCCC[n+]1ccc(C#N)cc1.O=S(=O)([N-]S(=O)(=O)C(F)(F)F)C(F)(F)F | 3.8 ± 0.33 | 3.94 ± 0.34 | 4.07 ± 0.35 | 4.21 ± 0.36 | 4.33 ± 0.37 | 4.45 ± 0.38 | 4.58 ± 0.4
3 | c1ccncc1 [pyridine] + CCCC[n+]1ccc(C#N)cc1.O=S(=O)([N-]S(=O)(=O)C(F)(F)F)C(F)(F)F | 0.47 ± 0.044 | 0.5 ± 0.046 | 0.53 ± 0.048 | 0.56 ± 0.05 | 0.591 ± 0.052 | 0.62 ± 0.054 | 0.65 ± 0.056
4 | C=Cc1ccccc1 [styrene] + CCCC[n+]1ccc(C#N)cc1.O=S(=O)([N-]S(=O)(=O)C(F)(F)F)C(F)(F)F | 1.28 ± 0.11 | 1.36 ± 0.11 | 1.44 ± 0.12 | 1.52 ± 0.13 | 1.6 ± 0.14 | 1.67 ± 0.14 | 1.75 ± 0.15
5 | C1CCOC1 [tetrahydrofuran] + CCCC[n+]1ccc(C#N)cc1.O=S(=O)([N-]S(=O)(=O)C(F)(F)F)C(F)(F)F | 0.622 ± 0.054 | 0.661 ± 0.057 | 0.701 ± 0.06 | 0.742 ± 0.063 | 0.779 ± 0.065 | 0.818 ± 0.068 | 0.858 ± 0.071
6 | c1ccsc1 [thiophene] + CCCC[n+]1ccc(C#N)cc1.O=S(=O)([N-]S(=O)(=O)C(F)(F)F)C(F)(F)F | 0.916 ± 0.076 | 0.96 ± 0.08 | 1 ± 0.08 | 1.05 ± 0.09 | 1.1 ± 0.09 | 1.14 ± 0.09 | 1.18 ± 0.1
7 | Cc1ccccc1 [toluene] + CCCC[n+]1ccc(C#N)cc1.O=S(=O)([N-]S(=O)(=O)C(F)(F)F)C(F)(F)F | 1.46 ± 0.12 | 1.54 ± 0.13 | 1.62 ± 0.14 | 1.7 ± 0.14 | 1.78 ± 0.15 | 1.86 ± 0.16 | 1.94 ± 0.17
8 | O [water] + CCCC[n+]1ccc(C#N)cc1.O=S(=O)([N-]S(=O)(=O)C(F)(F)F)C(F)(F)F | 3.31 ± 0.29 | 3.01 ± 0.26 | 2.74 ± 0.24 | 2.52 ± 0.22 | 2.33 ± 0.2 | 2.16 ± 0.19 | 2 ± 0.17
